Test results published in publication PMC11650849, “Brain endothelial permeability, transport, and flow assessed over 10 orders of magnitude using the in situ brain perfusion technique” (Fluids and Barriers of the CNS, 2024).
Where two headings read alike, the source gives them in different places.

Legend:
[1] = Neutral fraction at pH 7.4 calculated from pKa; assay type: physicochemical
[2] = for Brain Kin: calculated at brain blood flow […] and rat serum fu; for Extraction (unbound) / Brain vascular extraction (total): calculated at brain blood flow […]; for Extraction (unbound): free drug; for Brain vascular extraction (total): with rat serum fu
[3] = cited from earlier work; for Log Poct: octanol partition coefficient
[4] = cited from earlier work
[5] = rat in vivo measurements; cited from earlier work
[6] = In situ rat brain perfusion (brain uptake Kin, extraction E, BBB PS); settings: for Log Pc: Pc in cm/s; for Log Po: Po in cm/s; for Log PoS: PoS in mL/s/g; for Pc / Po: S assumed 100 cm^2/g; for PcS: cerebral cortex, S = physiological saline, AB = artificial blood
[7] = rat, in vivo
[8] = rat
[9] = neutral fraction at perfusion fluid pH 7.40, calculated from pKa
[10] = ref Hansch et al. [123], Avdeef [46] or other sources
[11] = intrinsic PS of neutral solute, PoS = PcS/fn, flow 0.1–[…]

Compound	fn (%) [1, 9]	Log Poct [3, 10]	Log Doct pH=7.4 [3, 10]	fu,.p ([4]; rat in vivo measurements)	Brain Vu,br [5]	Log Pc [6]	Log Po [6]	Log PoS [6]	Pc [6]	Po [6]	PoS ([6]; brain vascular intrinsic PoS)	PcS ([6]; flow 0.1–[…])	PoS [6, 11]	other results
CC(O)CO (stereo not shown) [1,2-Propanediol]	100%	−1.04	−1.04	1.00	1.04 mL/g	−4.67	−4.67	−2.67	21.6 ×10⁻⁶ cm/s	21.6 ×10⁻⁶ cm/s	0.00216 mL/s/g	0.0022 mL/s/g	0.00216 mL/s/g	Brain Kin [2]: 0.0112 mL/s/g; Extraction (unbound) [2]: 8.6%; Brain vascular extraction (total) [2]: 8.6%
OCCCO [1,3 Propanediol]	100%	−0.92	−0.92	1.00	1.02 mL/g	−4.29	−4.29	−2.29	–	–	0.00516 mL/s/g	0.0052 mL/s/g	0.00516 mL/s/g	Pc [7]: 51.6 ×10⁻⁶ cm/s; Po [7]: 5.16e-05 cm/s
OCCCCO [1,4-Butanediol]	–	–	–	–	–	–	–	–	–	–	–	–	–	fn (%) ([1]; pH 7.4): 100%; half-life [8]: 1.14 min; Log Pc ([7]; pH 7.4): −3.82; Log PoS ([7]; pH 7.4): −1.82; Pc ([7]; pH 7.4): 151 ×10⁻⁶ cm/s; PcS ([7]; pH 7.4): 0.015 mL/s/g; PoS ([7]; pH 7.4): 0.0151 mL/s/g; Log Po ([7]; pH 7.4): −3.82; Po ([7]; pH 7.4): 0.000151 cm/s; Log Doct pH=7.4 [3]: −0.52; fu,.p ([4]; rat): 1.00
Nc1c(O)cccc1C(=O)O [3-hydroxy-anthranilic acid]	0.15%	1.05	−1.78	1.00	–	–	–	–	–	–	–	–	–	Log Pc ([7]; pH 7.4): −5.88; Log PoS ([7]; pH 7.4): −1.05; Pc ([7]; pH 7.4): 1.31 ×10⁻⁶ cm/s; PcS ([7]; pH 7.4): 0.00013 mL/s/g; PoS ([7]; pH 7.4): 0.0886 mL/s/g; Log Po ([7]; pH 7.4): −3.05; Po ([7]; pH 7.4): 0.000886 cm/s; Brain Kin [2]: 0.000131 mL/s/g; Extraction (unbound) [2]: 0.54%; Brain vascular extraction (total) [2]: 0.54%
Nc1ccccc1C(=O)O [Anthranilic acid]	0.33%	1.21	−1.27	0.50	–	−4.92	−2.44	−0.44	11.9 ×10⁻⁶ cm/s	3600 ×10⁻⁶ cm/s	0.36 mL/s/g	0.0012 mL/s/g	0.36 mL/s/g	–
O=C(O)CCCc1ccc(N(CCCl)CCCl)cc1 [Chlorambucil]	0.16%	3.41	0.61	0.01	–	–	–	–	–	–	–	–	–	half-life [8]: 1.23 min; half-life ([8]; plasma): 1.2 min; Brain Equilibration t1/2, Measured ([7]; pH 7.4): 0.75 min; Log Pc ([7]; pH 7.4): −3.54; Log PoS ([7]; pH 7.4): 1.26; Pc ([7]; pH 7.4): 287 ×10⁻⁶ cm/s; PcS ([7]; pH 7.4): 0.029 mL/s/g; PoS ([7]; pH 7.4): 18.14 mL/s/g; Log Po ([7]; pH 7.4): −0.74; Po ([7]; pH 7.4): 0.18 cm/s
CN(C)CCCN1c2ccccc2Sc2ccc(Cl)cc21 [Chlorpromazine]	1.42%	–	–	0.0354	–	–	–	–	–	–	–	–	–	half-life ([8]; brain): 61.1 min; BBB PcS ([7]; pH 7.4): 0.31 ± 0.05 mL/s/g; Extraction (Kin/F) ([7]; pH 7.4): 100%; Log Pc ([7]; pH 7.4): −2.51; Log PoS ([7]; pH 7.4): 1.30; Pc ([7]; pH 7.4): 3090 ×10⁻⁶ cm/s; PcS ([7]; pH 7.4): 0.31 mL/s/g; PoS ([7]; pH 7.4): 19.8 mL/s/g; Log Po ([7]; pH 7.4): −0.70; Po ([7]; pH 7.4): 0.20 cm/s; Brain Kin [2]: 0.00885 mL/s/g; Extraction (unbound) [2]: 100%; Brain vascular extraction (total) [2]: 36.6%; Maximal flow—90% extraction, PcS/2.3 ([2]; protein-free saline, pH 7.4): 0.13 mL/s/g
CN1C(=O)CN=C(c2ccccc2F)c2cc([N+](=O)[O-])ccc21 [Flunitrazepam]	100%	2.03	2.03	0.19	–	–	–	–	–	–	–	–	–	Best fit PcS ([7]; pH 7.4): 0.14 mL/s/g
CC(C)Cc1ccc(C(C)C(=O)O)cc1 (stereo not shown) [Ibuprofen]	0.11%	–	–	0.016	3.38 mL/g	–	–	–	–	–	–	–	–	–
NC(=O)CI [Iodoacetamide]	100%	−0.19	−0.19	0.92	1.11 mL/g	−4.04	−4.04	−2.04	91.7 ×10⁻⁶ cm/s	91.7 ×10⁻⁶ cm/s	0.00917 mL/s/g	0.0092 mL/s/g	0.00917 mL/s/g	–
CC(C)NC(C)Cc1ccc(I)cc1 (stereo not shown) [Iofetamine, isopropyl-iodoamphetamine]	3.07%	3.26	1.75	0.25	–	−2.54	−1.02	0.98	2910 ×10⁻⁶ cm/s	94900 ×10⁻⁶ cm/s	9.49 mL/s/g	0.29 mL/s/g	9.49 mL/s/g	half-life [8]: 3.16 min; Maximal flow—90% extraction, PcS/2.3 ([2]; pH 7.4): 0.13 mL/s/g; Peak flow rate for 90% E ([2]; pH 7.4): 7.6 mL/min/g; BBB PcS ([6]; protein-free saline, differing/elevated flow rates, best fit): 0.238 mL/s/g
O=C[C@@H](O)[C@H](O)[C@@H](O)[C@@H](O)CO [L-Glucose]	100%	−3.18	−3.18	1.00	0.13 mL/g	−6.90	−6.90	−4.90	–	–	–	1.25e-05 mL/s/g	1.25e-05 mL/s/g	Pc [7]: 0.125 ×10⁻⁶ cm/s; Po [7]: 1.25e-07 cm/s
CO [Methanol]	100%	−0.52	−0.52	1.00	1.06 mL/g	−3.56	−3.56	−1.56	278 ×10⁻⁶ cm/s	278 ×10⁻⁶ cm/s	0.0278 mL/s/g	0.028 mL/s/g	0.0278 mL/s/g	–
CNC(N)=O [Methylurea]	100%	−1.40	−1.40	1.00	1.04 mL/g	−5.72	−5.72	−3.72	1.91 ×10⁻⁶ cm/s	1.91 ×10⁻⁶ cm/s	0.000191 mL/s/g	0.00019 mL/s/g	0.000191 mL/s/g	Brain Kin [2]: 0.000563 mL/s/g; Extraction (unbound) [2]: 0.79%; Brain vascular extraction (total) [2]: 0.79%
CCC1(c2ccccc2)C(=O)NC(=O)NC1=O [Phenobarbital]	47.7%	1.53	1.51	0.25	–	–	–	–	–	–	–	–	–	half-life [8]: 7.39 min; Log Pc ([7]; pH 7.4): −4.19; Log PoS ([7]; pH 7.4): −1.86; Pc ([7]; pH 7.4): 65.1 ×10⁻⁶ cm/s; PcS ([7]; pH 7.4): 0.0065 mL/s/g; PoS ([7]; pH 7.4): 0.0136 mL/s/g; Log Po ([7]; pH 7.4): −3.86; Po ([7]; pH 7.4): 0.000136 cm/s
Cn1c(=O)c2[nH]cnc2n(C)c1=O [Theophylline]	100%	0.00	0.00	–	–	–	–	–	–	–	–	–	–	half-life ([8]; brain): 4.6 min
CCCCNC(=O)NS(=O)(=O)c1ccc(C)cc1 [Tolbutamide]	0.61%	–	–	–	–	–	–	–	–	–	–	–	–	half-life ([8]; brain): 3.27 min
CC(=O)CC(c1ccccc1)c1c(O)c2ccccc2oc1=O (stereo not shown) [Warfarin]	0.01%	–	–	8.0E−03	3.03 mL/g	–	–	–	–	–	–	–	–	Log Pc ([7]; pH 7.4): −4.15; Log PoS ([7]; pH 7.4): 1.71; Pc ([7]; pH 7.4): 70.6 ×10⁻⁶ cm/s; PcS ([7]; pH 7.4): 0.0071 mL/s/g; PoS ([7]; pH 7.4): 51.2 mL/s/g; Log Po ([7]; pH 7.4): −0.29; Po ([7]; pH 7.4): 0.51 cm/s
CC(C)(C)OC(=O)CCCc1ccc(N(CCCl)CCCl)cc1 [t-butyl chlorambucil]	100%	5.24	5.24	2.0E−03	–	–	–	–	–	–	–	–	–	Brain Extraction (%) [7]: 24%; Log Pc [7]: −0.49; Log PoS [7]: 1.51; Pc [7]: 321000 ×10⁻⁶ cm/s; PcS [7]: 32.1 mL/s/g; PoS [7]: 32.1 mL/s/g; Log Po [7]: −0.49; Po [7]: 0.32 cm/s; Maximal flow—90% extraction, PcS/2.3 ([2]; pH 7.4): 14.0 mL/s/g; Log Poct ([3]; ref Hansch et al. [123], Avdeef [46] or other sources, listed as t-butyl-chlorambucil): 5.2
Erythrosine B	7.8E−06%	–	–	–	–	–	–	–	–	–	–	–	–	Log Pc [7]: −5.19; Log PoS [7]: 3.92; Pc [7]: 6.53 ×10⁻⁶ cm/s; PcS [7]: 0.00065 mL/s/g; Log Po [7]: 1.92; Po [7]: 83.48 cm/s; Brain Kin [2]: 6.53e-06 mL/s/g; Extraction (unbound) [2]: 2.7%; Brain vascular extraction (total) [2]: 0.027%; Log Doct pH=7.4 [3]: −0.15; fu,.p ([4]; rat): 0.01
Inulin	89.0%	−4.36	−4.13	1.00	0.02 mL/g	−8.12	−8.12	−6.12	0.0075 ×10⁻⁶ cm/s	0.0075 ×10⁻⁶ cm/s	7.5e-07 mL/s/g	7.5e-07 mL/s/g	7.5e-07 mL/s/g	–
